Results: patent publication US20230052893A1, “A SYNERGISTIC BACTERICIDE AND BACTERIOSTATIC ORGANIC SANITIZING/DISINFECTANT/CLEANING FORMULATION” (UNIVERSIDAD DE CONCEPCIÓN, priority 2020, published 2023)

Tests used:
[1] = system: E. coli ATCC 25932, L. monocytogenes ATCC 19115; Staphylococcus aureus ATCC 6538P, Salmonella enterica ATCC 13076; assay: MIC-MBC in planktonic cells, the four pathogens together; assay type: cell-based; conditions: buffer used alone; range over the four pathogens; 18-20 hrs exposure
Method: The efficacy of the formulation was evaluated through minimal inhibitory concentration (MIC) and minimal bactericide concentration (MBC) against pathogens E. coli ATCC 25932, L. monocytogenes ATCC 19115; Staphylococcus aureus ATCC 6538P, Salmonella enterica ATCC 13076. […] The range of disinfectant concentrations was 0.037-5.17% w/v to acetate buffer and 0.043-6.06% w/v to propionate buffer. These concentrations are obtained from a stock solution which is diluted with filtered water.

Botrytis cinerea = assay: Inhibition of conidia germination; assay type: cell-based; conditions: 24 hours
Method: (§1) In summary 100 μl of inoculum suspension was added into 96 wells in plates, using the following concentrations: 0.037-14.8% w/v acetate buffer and 0.043-17.31% w/v propionate buffer; 100 μl water (fungus) or culture medium (bacteria) and 10 μl of inoculum suspension at a final concentration of 1×10^5 UFC/ml. An incubation of 24 hours at ±25° C. was performed, assays was made by triplicate. The antimicrobial effect was evaluated as follows: B. cinerea, a germinated conidia counting was made; and P. syringae, a minimal inhibitory concentration (MIC) was firstly made through presence/absence of turbidity, and from the concentrations in absence of turbidity 100 μl was taken to be transferred to a culture medium without the antimicrobial formulation and an incubation of 24 hours at room temperature was carried out to assay the minimal bactericide concentration (MBC).

Pseudomonas syringae = assay: MIC and MBC against agronomical pest; assay type: cell-based; conditions: buffer alone; 24 hours
Method: as §1

[2] = system: L. monocytogenes ATCC 19115 biofilm; assay: CDC biofilm reactor, biofilm on stainless steel coupons; assay type: cell-based, Listeria monocytogenes; conditions: 250 ppm, 30 minutes contact
Method: (§2) Tests on bacterial biofilms were also made to the pathogen strains, which were performed as follows: stainless steel coupons (type 316) were washed, installed on a support within a glass vessel and autoclaved at 121° C. by 20 minutes. To evaluate the disinfectant effect over a stablished biofilm to each separate bacteria, 3 ml of a concentration of 0.5 Mc Farland was inoculated within a vessel and then the same was incubated by 6, 12, 24 and 48 hours at 16° C. After each time of incubation supports containing coupons were removed and transferred to Falcon tubes of 50 ml containing the present synergistic disinfectant formulation at the following concentrations, DS1: 15% w/v (ratio acetate:propionate, 6.86:1) and DS2: 35% w/v (ratio acetate:propionate, 6.86:1). Peracetic acid was used (PAA) as control at concentrations of 250 ppm, the contact with the present synergistic disinfectant formulation or peracetic acid with supports containing biofilms was kept by 30 minutes. To perform a counting, an aliquot was taken, seeded into trypticase agar and incubated at 30° C. by 24 h, finally a counting of adhered cells was made. […]

[3] = system: E. coli ATCC 25932 biofilm; assay: as above; assay type: cell-based, Escherichia coli; conditions: 250 ppm, 30 minutes contact
Method: as §2

[4] = system: Salmonella enterica ATCC 13076 biofilm; assay: as above; assay type: cell-based; conditions: 250 ppm, 30 minutes contact
Method: (§3) Tests on bacterial biofilms were also made to the pathogen strains, which were performed as follows: stainless steel coupons (type 316) were washed, installed on a support within a glass vessel and autoclaved at 121° C. by 20 minutes. To evaluate the disinfectant effect over a stablished biofilm to each separate bacteria, 3 ml of a concentration of 0.5 Mc Farland was inoculated within a vessel and then the same was incubated by 6, 12, 24 and 48 hours at 16° C. After each time of incubation supports containing coupons were removed and transferred to Falcon tubes of 50 ml containing the present synergistic disinfectant formulation at the following concentrations, DS1: 15% w/v (ratio acetate:propionate, 6.86:1) and DS2: 35% w/v (ratio acetate:propionate, 6.86:1). Peracetic acid was used (PAA) as control at concentrations of 250 ppm, the contact with the present synergistic disinfectant formulation or peracetic acid with supports containing biofilms was kept by 30 minutes. To perform a counting, an aliquot was taken, seeded into trypticase agar and incubated at 30° C. by 24 h, finally a counting of adhered cells was made. FIGS. 1 to 4 showing bacteria concentrations obtained to different times after 30 minutes of treatment using the above mentioned disinfectant formulations and peracetic acid as control to the following pathogens: L. monocytogenes ATCC 19115 (FIG. 1); E. coli ATCC 25932 (FIG. 2), Salmonella enterica ATCC 13076.L. (FIG. 3); and Staphylococcus aureus ATCC 6538P (FIG. 4).

[5] = system: Staphylococcus aureus ATCC 6538P biofilm; assay: as above; assay type: cell-based; conditions: 250 ppm, 30 minutes contact
Method: as §3

pathogen disease = assay: Disease incidence in inoculated fruits, 21-days aged fruits (fruit not stated)
Source text: Fruits having similar, size, form and color and having no visual damage by fungi were selected. To perform assays a 1-2 mm deep wound was made on the selected fruit by a needle and 10^5 UFC/ml B. cinerea and Penicillium spp. (to different samples, independent test) were inoculated through the same wound under sterility conditions, fruits was not disinfected prior to the inoculation procedures. Assays was made by triplicate on 6 units submitted to visual inspection during the treatment, which were equidistantly located therebetween in Petri plates of 100×15 mm and exposed to a disinfectant treatment (Different proportions and concentrations) spraying on the fruit 0.2 ml of the different synergistic proportion of the formulation, finally an incubation at 4° C. was allowed.
Four acetate/propionate mixtures (proportions) were tested, 17.2:1, 6.86:1, 1.72:1 and 0.043:1; for each of them two or three concentrations were tested. Treatments: Treatment A/Treatment 1: 3.38% w/v mixture acetate/propionate buffers. Treatment B/Treatment 2: 11.25% w/v mixture acetate/propionate buffers. Treatment C: 25% w/v mixture acetate/propionate buffers. Treatment D/Negative Control: Fruits with wound immersed in water. […]
Assays were evaluated to days 0 (control), 7, 14 and 21, a counting of fruits showing pathogen signs was made to determined incidence. […]

[6] = system: mesophyll aerobics and enterobacteria; assay: Disinfectant effect on non-inoculated meats, the 3 types of meats together; conditions: 2.5% Sodium Acetate; different meats, during test days
Method: Assays to evaluate antimicrobial effect on the surface of beef, chicken meat and salmon meat was performed. […] The growth of bacteria Escherichia coli was allowed in a TSB culture medium by 24 h at 35° C.
Disinfecting effect on a total mesophyll aerobic and enterobacteria microorganism counting was evaluated to initial non inoculated (E. coli) meat. Also, a concentration of 10^1 UFC/g of E. coli was inoculated and then the disinfectant effect was evaluated on such pathogen microorganism counting.
Meat (beef, chicken and salmon) was purchased the same date in which the assay was arranged and was kept under storing conditions at 4° C. up to using the same. Prior to initiating assays pieces of 5 grams, pieces were randomly selected to each treatment, and a) pieces were independently inoculated with 0.2 ml of culture comprising the above mentioned bacteria by separate and 2 ml was applied to the treatments to be defined below or b) pieces were only chopped and 2 ml of treatment was applied:
Meat pieces (inoculated or non-inoculated) with its respective treatments was transferred to tubes of 50 mL under conditions of sterility and stored at 4° C. up to its final evaluation. Assays were made by triplicate.
Antimicrobial activity evaluation was performed to 0, 3, 8 and 12 post-treatment days. […] Colonies were counted at 24 and 48 hours, depending the medium to be used to the counting.

acetate buffer
Concentration needed by separate to eliminate the pathogens (MBC) [1]: 0.74-3.69 % w/v
Inhibition of germination (%) (Botrytis cinerea; Acetate 2.22 % w/v, adjusted mortality media): 0.3%
Inhibition of germination (%) (Botrytis cinerea; Acetate 5.17 % w/v): 7.4%
Inhibition of germination (%) (Botrytis cinerea; Acetate 7.4 % w/v): 8.1%
MBC (Pseudomonas syringae): 3.69 % w/v

CCC(=O)O [Propionate, propionate buffer]
Concentration needed by separate to eliminate the pathogens (MBC) [1]: 0.43-3.46 % w/v
inhibition at 2.6 % strength (Botrytis cinerea; Botrytis cinerea, Propionate 2.6 % w/v): 5.6%
inhibition at 6.06 % strength (Botrytis cinerea; Botrytis cinerea, Propionate 6.06 % w/v): 18.1%
inhibition at 8.65 % strength (Botrytis cinerea; Botrytis cinerea, Propionate 8.65 % w/v): 21.2%

CC(=O)OO [peracetic acid]
Elimination of biofilm ([2]; 24-hours aged biofilms): fully eliminate
Reduction of biofilm ([2]; biofilm after 6 and 12 hours): completely reduced
Elimination of biofilm ([3]; 24-hours aged biofilms): fully eliminate
Reduction of biofilm ([3]; biofilm after 6 and 12 hours): completely reduced
Elimination of biofilm ([4]; 24-hours aged biofilms): fully eliminate
Reduction of biofilm ([4]; biofilm after 6 and 12 hours): completely reduced
Elimination of biofilm ([5]; 24-hours aged biofilms): fully eliminate
Reduction of biofilm ([5]; biofilm after 6 and 12 hours): completely reduced

benzalkonium chloride
Time for which pathogen disease / incidence is inhibited (pathogen disease): 42 days

CC(=O)[O-].[Na+] [sodium acetate, Sodium Acetate]
Aerobic mesophilic and enterobacterial counts [6]: close to the negative control
